# In patent US8722720B2, “Imidazole derivatives as IDO inhibitors” (NewLink Genetics Corporation, priority 2010, dated 2014):
# pIC50: −log10 of the molar value. Like-named read-outs stand apart in the source and are kept apart here.
# Target: T1, purified human IDO protein (Homo sapiens, UniProt P14902)
# T1 construct: 2 extra amino acids (linker from the BglII cloning site of pQE70); made in house; host or cells: E. coli M15(pREP4) with plasmid pQE70-hIDO
# Assay: Enzymatic IDO assay (kynurenine production, absorbance at 480 nm)
# Assay type: biochemical
# Settings: values reported in ranges
# Method in brief: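 Inhibitors (final 1 mM to 5 nM, in 50 mM potassium phosphate) preincubated with enzyme 5 min at 25 °C, then 200 μM L-tryptophan added, 15 min at 37 °C. TCA stop and 60 °C hydrolysis to kynurenine, detected with p-dimethylaminobenzaldehyde at 480 nm. IC50 by nonlinear regression.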
# [1] = recombinant human IDO, read-out: hIDO IC50
# T1 sequence (P14902 whole entry P110S/E119G): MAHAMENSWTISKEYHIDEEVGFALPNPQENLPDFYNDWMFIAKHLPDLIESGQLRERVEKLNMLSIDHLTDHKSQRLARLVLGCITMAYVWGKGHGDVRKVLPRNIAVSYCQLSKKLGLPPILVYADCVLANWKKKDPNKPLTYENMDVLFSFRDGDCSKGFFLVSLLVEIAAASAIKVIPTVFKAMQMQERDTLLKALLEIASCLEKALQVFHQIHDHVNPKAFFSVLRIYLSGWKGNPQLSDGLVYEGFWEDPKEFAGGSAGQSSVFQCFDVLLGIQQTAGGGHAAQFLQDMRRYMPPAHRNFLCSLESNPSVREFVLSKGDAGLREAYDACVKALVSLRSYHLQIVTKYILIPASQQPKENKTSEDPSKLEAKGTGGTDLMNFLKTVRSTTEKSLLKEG
SMILES,pIC50 [1],"pIC50 (hIDO IC50, recombinant human IDO)"
"c1ccc(-c2c[nH]cn2)c(OCCc2ccc(N3CCCC3)cc2)c1 [compound 1225, 4-(2-(4-(pyrrolidin-1-yl)phenethoxy)phenyl)-1H-imidazole]",4.00 to 5.00,–
"O=C(Cc1cscn1)Nc1ccc(CCOc2ccccc2-c2c[nH]cn2)cc1 [compound 1226, N-(4-(2-(2-(1H-imidazol-4-yl)phenoxy)ethyl)phenyl)-2-(thiazol-4-yl)acetamide]",5.00 to 6.00,–
"O=C(Cc1ncccn1)Nc1ccc(CCOc2ccccc2-c2c[nH]cn2)cc1 [compound 1227, N-(4-(2-(2-(1H-imidazol-4-yl)phenoxy)ethyl)phenyl)-2-(pyrimidin-2-yl)acetamide]",5.00 to 6.00,–
"O=C(Cc1ccccc1)Nc1ccc(CCOc2ccccc2-c2c[nH]cn2)cn1 [compound 1228, N-(5-(2-(2-(1H-imidazol-4-yl)phenoxy)ethyl)pyridin-2-yl)-2-phenylacetamide]",5.00 to 6.00,–
"O=C1CCCCN1c1ccc(CCOc2ccccc2-c2c[nH]cn2)cc1 [compound 1230, 1-(4-(2-(2-(1H-imidazol-4-yl)phenoxy)ethyl)phenyl)piperidin-2-one]",4.00 to 5.00,–
"Oc1cccc(OCCN2CCOCC2)c1-c1cnc[nH]1 [compound 1231, 2-(1H-imidazol-5-yl)-3-(2-morpholinoethoxy) phenol]",4.00 to 5.00,–
"CC(=O)Nc1ccc(CCOc2cccc(O)c2-c2cnc[nH]2)cc1 [compound 1232, N-(4-(2-(3-hydroxy-2-(1H-imidazol-5-yl)phenoxy)ethyl)phenyl)acetamide]",4.00 to 5.00,–
"CN1CCN(CCOc2ccccc2-c2c[nH]cn2)CC1 [compound 1234, 1-(2-(2-(1H-imidazol-4-yl)phenoxy)ethyl)-4-methylpiperazine]",< 4.00,–
"Oc1cccc(OCCC2CCCO2)c1-c1cnc[nH]1 (centres unmarked) [compound 1235, 2-(1H-imidazol-5-yl)-3-(2-(tetrahydrofuran-2-yl)ethoxy)phenol]",4.00 to 5.00,–
"c1ccc(-c2c[nH]cn2)c(OCCN2CCOCC2)c1 [compound 1236, 4-(2-(2-(1H-imidazol-4-yl)phenoxy)ethyl) morpholine]",< 4.00,–
"Oc1cccc(OCCc2ccncc2)c1-c1cnc[nH]1 [compound 1238, 2-(1H-imidazol-5-yl)-3-(2-(pyridin-4-yl)ethoxy) phenol]",4.00 to 5.00,–
"O=C(Cc1cncnc1)Nc1ccc(CCOc2ccccc2-c2c[nH]cn2)cc1 [compound 1239, N-(4-(2-(2-(1H-imidazol-4-yl)phenoxy)ethyl)phenyl)-2-(pyrimidin-5-yl)acetamide]",5.00 to 6.00,–
"CC(C)(C)OC(=O)N1CCC(CCOc2cccc(O)c2-c2cnc[nH]2)CC1 [compound 1240, tert-butyl 4-(2-(3-hydroxy-2-(1H-imidazol-5-yl)phenoxy)ethyl)piperidine-1-carboxylate]",4.00 to 5.00,–
"O=C(Cc1cccc([N+](=O)[O-])c1)Nc1ccc(CCOc2ccccc2-c2c[nH]cn2)cc1 [compound 1241, N-(4-(2-(2-(1H-imidazol-4-yl)phenoxy)ethyl)phenyl)-2-(3-nitrophenyl)acetamide]",5.00 to 6.00,–
"O=C(Cc1ccccc1[N+](=O)[O-])Nc1ccc(CCOc2ccccc2-c2c[nH]cn2)cc1 [compound 1242, N-(4-(2-(2-(1H-imidazol-4-yl)phenoxy)ethyl)phenyl)-2-(2-nitrophenyl)acetamide]",> 6.00,–
"BrCCOc1ccccc1-c1c[nH]cn1 [compound 1243, 4-(2-(2-bromoethoxy)phenyl)-1H-imidazole]",4.00 to 5.00,–

SMILES,pIC50 [1],"pIC50 (hIDO IC50, recombinant human IDO)"
"Nc1cccc(CC(=O)Nc2ccc(CCOc3ccccc3-c3c[nH]cn3)cc2)c1 [compound 1244, N-(4-(2-(2-(1H-imidazol-4-yl)phenoxy)ethyl)phenyl)-2-(3-aminophenyl)acetamide]",5.00 to 6.00,–
"O=C(Cc1ccc([N+](=O)[O-])cc1)Nc1ccc(CCOc2ccccc2-c2c[nH]cn2)cc1 [compound 1247, N-(4-(2-(2-(1H-imidazol-4-yl)phenoxy)ethyl)phenyl)-2-(4-nitrophenyl)acetamide]",> 6.00,–
"Nc1ccccc1CC(=O)Nc1ccc(CCOc2ccccc2-c2c[nH]cn2)cc1 [compound 1248, N-(4-(2-(2-(1H-imidazol-4-yl)phenoxy)ethyl)phenyl)-2-(2-aminophenyl)acetamide]",> 6.00,–
"Nc1ccc(CC(=O)Nc2ccc(CCOc3ccccc3-c3c[nH]cn3)cc2)cc1 [compound 1250, N-(4-(2-(2-(1H-imidazol-4-yl)phenoxy)ethyl)phenyl)-2-(4-aminophenyl)acetamide]",5.00 to 6.00,–
"CC(=O)OCCN(C)C(=O)Oc1ccc(Cl)cc1-c1c[nH]cn1 [compound 1253, 2-(((4-chloro-2-(1H-imidazol-4-yl)phenoxy)carbonyl)(methyl)amino)ethyl acetate]",–,< 4.00
"Nc1nc(CC(=O)Nc2ccc(CCOc3ccccc3-c3c[nH]cn3)cc2)cs1 [compound 1257, N-(4-(2-(2-(1H-imidazol-4-yl)phenoxy)ethyl)phenyl)-2-(2-aminothiazol-4-yl)acetamide]",5.00 to 6.00,–
"O=C(CC1CCOCC1)Nc1ccc(CCOc2ccccc2-c2c[nH]cn2)c(Cl)c1 [compound 1260, N-(4-(2-(2-(1H-imidazol-4-yl)phenoxy)ethyl)-3-chlorophenyl)-2-(tetrahydro-2H-pyran-4-yl)acetamide]",> 6.00,–
"COC(=O)c1cccc(C(=O)Nc2ccc(CCOc3ccccc3-c3c[nH]cn3)cc2)c1 [compound 1261, methyl 3-((4-(2-(2-(1H-imidazol-4-yl)phenoxy)ethyl)phenyl)carbamoyl)benzoate]",> 6.00,–
"O=C(Nc1ccc(CCOc2ccccc2-c2c[nH]cn2)cc1)NC1CCOCC1 [compound 1263, 1-(4-(2-(2-(1H-imidazol-4-yl)phenoxy)ethyl)phenyl)-3-(tetrahydro-2H-pyran-4-yl)urea]",4.00 to 5.00,–
"COC(=O)[C@@H](Cc1cn(C)c2ccccc12)NC(=O)Oc1ccc(Cl)cc1-c1c[nH]cn1 [compound 1264, (R)-methyl 2-(((4-chloro-2-(1H-imidazol-4-yl)phenoxy)carbonyl)amino)-3-(1-methyl-1H-indol-3-yl) propanoate]",5.00 to 6.00,–
"O=C(Nc1ccc(CCOc2ccccc2-c2c[nH]cn2)c(Cl)c1)NC1CCOCC1 [compound 1265, 1-(4-(2-(2-(1H-imidazol-4-yl)phenoxy)ethyl)-3-chlorophenyl)-3-(tetrahydro-2H-pyran-4-yl)urea]",> 6.00,–
"O=C(O)c1ccc(C(=O)Nc2ccc(CCOc3ccccc3-c3c[nH]cn3)cc2)cc1 [compound 1270, 4-((4-(2-(2-(1H-imidazol-4-yl)phenoxy)ethyl)phenyl)carbamoyl)benzoic acid]",5.00 to 6.00,–
"COC(=O)c1ccc(C(=O)Nc2ccc(CCOc3ccccc3-c3c[nH]cn3)cc2)cc1 [compound 1271, methyl 4-((4-(2-(2-(1H-imidazol-4-yl)phenoxy)ethyl)phenyl)carbamoyl)benzoate]",5.00 to 6.00,–
O=C(Nc1ccc(CCOc2ccccc2-c2c[nH]cn2)cc1)c1cc(=O)[nH]c(=O)[nH]1 [compound 1272],5.00 to 6.00,–
"O=C(O)c1cccc(C(=O)Nc2ccc(CCOc3ccccc3-c3c[nH]cn3)cc2)c1 [compound 1276, 3-((4-(2-(2-(1H-imidazol-4-yl)phenoxy)ethyl)phenyl)carbamoyl)benzoic acid]",5.00 to 6.00,–
"O=C(O)c1ccccc1C(=O)Nc1ccc(CCOc2ccccc2-c2c[nH]cn2)cc1 [compound 1285, 2-((4-(2-(2-(1H-imidazol-4-yl)phenoxy)ethyl)phenyl)carbamoyl)benzoic acid]",5.00 to 6.00,–
